In general, AC50 refers to the concentration giving half of the maximal activity seen. Read a high AC50 as weaker potency. Broadly, the CC50 is the concentration that lowers cell viability or growth by half.

One data set concerns IL12p40. In words: PBMC cytokine profiling assay, IL12-p40 induction. The data set is classed as cell-based. As to conditions: human PBMCs, 24 hours incubation. An outline of the steps: (§1)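 Cryopreserved healthy-donor human PBMCs (100k cells/well) were exposed for 24 h at 37 °C to a 10-point half-log compound series in 0.5% final DMSO. Secreted cytokines in the conditioned medium were quantified by MSD electrochemiluminescence, with TNFα samples diluted 1:9. AC50 was fitted by non-linear regression on percent activation normalised to plate controls.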

For another data set, the system named is IFNα. As to the kind of experiment: PBMC cytokine profiling assay, IFNα induction. The data set is classed as cell-based. As to conditions: human PBMCs, 24 hours incubation. An outline of the steps: as §1
In the next data set the test system is TNFα. In words: PBMC cytokine profiling assay, TNFα induction. Type of data set: cell-based. As to conditions: human PBMCs, 24 hours incubation. A digest of the protocol:
as §1

Another data set has as its system MRC-5 cells. In words: Cytotoxicity assay, MRC-5 cells, Cell Titer Glo, 5 days. Type of data set: cell-based, human. As to conditions: MRC-5, five days incubation, intracellular ATP; read-out: CC50 MRC5 CTG 5D. From the text:
(§2) To assess potential off-target toxicity of certain compounds disclosed herein, the in vitro cytotoxicity of those compounds was profiled using a panel of 5 cell lines with various tissue origins. Compound cytotoxicity was examined in hepatoma-derived Huh-7 and HepG2 cells, prostate carcinoma-derived PC-3 cells, lymphoma derived MT-4 cells and a normal diploid lung cell line MRC-5. HepG2 and PC-3 cells used were adapted to grow in glucose-free galactose-containing medium. These cells have a relatively higher sensitivity to inhibitors of mitochondrial oxidative phosphorylation compared to the same cells maintained in standard glucose-containing culture medium (Marroquin et al., Toxicol. Sci. 2007; 97 (2):539-47). Cell viability was determined by measuring intracellular ATP levels following five days of continuous incubation with test compounds.
(§3) The human hepatoma Huh-7 cell line was obtained from ReBLikon GmbH (Mainz, Germany) {20879}. The MT-4 cell line (HTLV-1 transformed, human T lymphoblastoid cells) was obtained from the NIH AIDS Reagent program (Bathesda, MD). The human hepatoblastoma cell line HepG2, human prostate carcinoma cell line PC-3, and normal fetal lung derived MRC-5 cells were obtained from the American Type Culture Collection (ATCC, Manassas, VA).
(§4) Huh-7 cells were maintained in Dulbecco's Modified Eagle Medium (DMEM) supplemented with 10% fetal bovine serum (FBS, Hyclone, Logan, UT), 1% non-essential amino acids (Gibco, Carlsbad, CA). PC-3 and HepG2 cells were adapted to grow in 0.2% galactose-containing, glucose-free Dulbecco's Modified Eagle Medium (DMEM) supplemented with 10% fetal bovine serum (FBS, Hyclone, Logan, UT), 1% non-essential amino acids (Gibco, Carlsbad, CA), 1% Pyruvate (Cellgro), 1% Glutamax (Invitrogen, Carlsbad, CA). Galactose-adapted cells were maintained in the same culture medium. MRC-5 cells were maintained in Eagle's Minimum Essential Medium (EMEM) supplemented with 10% fetal bovine serum (FBS, Hyclone, Logan, UT). MT-4 cells were maintained in RPMI-1640 supplemented with 10% fetal bovine serum (FBS, Hyclone, Logan, UT). All cell culture media were also supplemented with 100 Units/mL penicillin, 100 μg/mL streptomycin (Gibco).
(§5) Using a Biotek uFlow Workstation (Biotek, Winooski, VT), 1500 HepG2, 1500 PC-3, 500 Huh7 or 1500 MRC-5 cells in 90 μL of culture media were dispensed into each well of black polystyrene tissue culture-treated 384-well plates. Plated cells were incubated for 24 hours in an incubator at 37° C., 5% CO2 and 90% humidity. Compound serial dilutions were performed in 100% DMSO in 384-well polypropylene (high recovery) plates on a Biomek FX Workstation (Beckman Coulter, Fullerton, CA). After 3-fold serial dilutions, 0.4 μL of compounds were transferred into 384-well plates containing cells using a Velocity 11 system equipped with a Bravo 384-well pipettor. The DMSO concentration in the final assay plates was 0.44% (v/v). Cells were incubated with compound(s) for five days at 37° C. Puromycin (44 μM final concentration) and DMSO (0.44%, v/v) were used as a positive and negative controls, respectively
(§6) At the end of the incubation period the cytotoxicity assay was performed as follows: Media from 384-well cell culture plates were aspirated with a Biotek EL405 plate-washer (Biotek) and cells were washed with 100 μL PBS once. Twenty microliters of Cell Titer Glo (Promega, Madison, WI) was added to each well of the plates with a Biotek uFlow liquid dispenser. Plates were incubated for 15 minutes at room temperature before luminescence was measured with a Perkin Elmer Envision Plate Reader (Perkin Elmer, Waltham, MA).
(§7) CC50 values were defined as the compound concentration that caused a 50% decrease in luminescence signal, and were calculated by non-linear regression using Pipeline Pilot software by applying a four parameter fit equation (Accelrys, San Diego, CA). Individual CC50 values are listed as μM concentrations.
A general note: In ATP-based viability assays light output follows the ATP content of the culture.

Data set [1] is described as follows: Cytotoxicity assay, galactose-adapted HepG2 cells, Cell Titer Glo, 5 days. Type of data set: cell-based. As to conditions: human, galactose-adapted HepG2, five days incubation, intracellular ATP, read-out: CC50 GALHEPG2 CTG 5D.
Source text: as §2, §3, §4, §5, §6, §7

In another data set the test system is Huh-7 cells. As to the kind of experiment: Cytotoxicity assay, Huh-7 cells, Cell Titer Glo, 5 days. The data set is classed as cell-based, human. As to conditions: Huh-7, five days incubation, intracellular ATP; read-out: CC50 HUH7 CTG 5D.
Source text: as §2, §3, §4, §5, §6, §7

Take `CCCC[C@@](C)(Nc1nc(N)nc2cc(F)cnc12)C(C)O` (single isomer, unassigned) [Example 95]: the figures for the concentration at half-maximal activity (AC50) in the data set on IL12p40, in the data set with IFNα and in the data set on TNFα were 0.15 µM, more than 50 µM and 0.15 µM, respectively. The CC50 in the data set on MRC-5 cells turned out to be 44.4 µM.
With `CCCC[C@H](CNC(C)=O)Nc1nc(N)nc2cccnc12` [Example 51, (R)—N-(2-((2-aminopyrido[3,2-d]pyrimidin-4-yl)amino)hexyl)acetamide], in data set [1], the CC50 at 5 days was found to be 44.4 µM. Moreover, the AC50 with IL12p40 (Homo sapiens, PBMC, 24 h) is 0.33 µM; with IFNα (Homo sapiens, PBMC, 24 h), more than 200 µM; with TNFα (Homo sapiens, PBMC, 24 h), 0.37 µM. In addition, the CC50 in the data set with Huh-7 cells and in the data set with MRC-5 cells was 44.4 µM in each case.
For `CCCC[C@@H](Nc1nc(N)nc2cc(F)cnc12)C(O)CF` (stereo partly drawn) [Example 102, (3R)-3-((2-amino-7-fluoropyrido[3,2-d]pyrimidin-4-yl)amino)-1-fluoroheptan-2-ol], the AC50 is 0.76 µM in the data set with IL12p40 (Homo sapiens, PBMC, 24 h); more than 50 µM with IFNα (Homo sapiens, PBMC, 24 h); 0.81 µM in the data set with TNFα (Homo sapiens, PBMC, 24 h). Also, the cytotoxic concentration (CC50) in the data set with Huh-7 cells and with MRC-5 cells was 44.4 µM each time.
With `CCC[C@H](CO)Nc1nc(N)nc2cccnc12` [Example 8, (R)-2-((2-aminopyrido[3,2-d]pyrimidin-4-yl)amino)pentan-1-ol], the AC50 with IL12p40 (Homo sapiens, PBMC, 24 h) is 19.4 µM; with IFNα (Homo sapiens, PBMC, 24 h) it was more than 50 µM; with TNFα (Homo sapiens, PBMC, 24 h), 20.2 µM.
Take `C=CCC[C@H](CO)Nc1nc(N)nc2cccnc12` [Example 72, (R)-2-((2-aminopyrido[3,2-d]pyrimidin-4-yl)amino)hex-5-en-1-ol]: the AC50 in the data set on IL12p40 (Homo sapiens, PBMC, 24 h) was 7 µM; with IFNα (Homo sapiens, PBMC, 24 h), more than 50 µM; in the data set with TNFα (Homo sapiens, PBMC, 24 h) it was 7.2 µM.
For `CCCCNc1nc(N)nc2ccc(C(F)(F)F)nc12` [Example 32, N^4-butyl-6-(trifluoromethyl)pyrido[3,2-d]pyrimidine-2,4-diamine], in that order: more than 50 µM, more than 50 µM and more than 50 µM.
For `CCCC[C@H](CNS(C)(=O)=O)Nc1nc(N)nc2cccnc12` [Example 52, (R)—N-(2-((2-aminopyrido[3,2-d]pyrimidin-4-yl)amino)hexyl)methanesulfonamide], in that order: 3.6 µM, more than 50 µM and 3.2 µM.
For `CCCC[C@H](CO)Nc1nc(N)nc2cc(OC)cnc12` [Example 105, (R)-2-((2-amino-7-methoxypyrido[3,2-d]pyrimidin-4-yl)amino)hexan-1-ol] the same measures were 3.4 µM, more than 50 µM and 3.5 µM.
For the compound `CCCCC(C)(CO)Nc1nc(N)nc2cc(F)cnc12` (stereo not drawn) [Example 63, 2-((2-amino-7-fluoropyrido[3,2-d]pyrimidin-4-yl)amino)-2-methylhexan-1-ol], the AC50 in the data set on IL12p40 (Homo sapiens, PBMC, 24 h) worked out at 0.43 µM; with IFNα (Homo sapiens, PBMC, 24 h), 22.4 µM; in the data set on TNFα (Homo sapiens, PBMC, 24 h) it was 0.41 µM.
For `Nc1nc(NCC2CCCO2)c2ncccc2n1` (stereo not drawn) [Example 16, N^4-((tetrahydrofuran-2-yl)methyl)pyrido[3,2-d]pyrimidine-2,4-diamine], the concentration at half-maximal activity (AC50) in the data set on IL12p40 (Homo sapiens, PBMC, 24 h) was more than 50 µM; with IFNα (Homo sapiens, PBMC, 24 h) it was more than 50 µM; in the data set with TNFα (Homo sapiens, PBMC, 24 h), more than 50 µM.
Turning to `CC(F)CC[C@H](CO)Nc1nc(N)nc2cccnc12` (stereo partly drawn) [Example 73, (2R)-2-((2-aminopyrido[3,2-d]pyrimidin-4-yl)amino)-5-fluorohexan-1-ol], the AC50 in the data set on IL12p40 (Homo sapiens, PBMC, 24 h) is 1.3 µM; in the data set on IFNα (Homo sapiens, PBMC, 24 h), more than 50 µM; in the data set with TNFα (Homo sapiens, PBMC, 24 h) it was 1.3 µM.
`CCC[C@@H](CO)Nc1nc(N)nc2cc(Cl)cnc12` [Example 19E, (S)-2-((2-amino-7-chloropyrido[3,2-d]pyrimidin-4-yl)amino)pentan-1-ol]: the AC50 in the data set on IL12p40 (Homo sapiens, PBMC, 24 h) is 2.5 µM; with IFNα (Homo sapiens, PBMC, 24 h), 21.6 µM; in the data set with TNFα (Homo sapiens, PBMC, 24 h) it was 3.3 µM.
For `CCCCC[C@](C)(CNC(C)=O)Nc1nc(N)nc2cccnc12` [Example 116, (R)—N-(2-((2-aminopyrido[3,2-d]pyrimidin-4-yl)amino)-2-methylheptyl)acetamide] the same measures were 0.11 µM, more than 50 µM and 0.036 µM.
For `Nc1nc(N[C@H](CO)c2ccccc2)c2ncccc2n1` [Example 7, (S)-2-((2-aminopyrido[3,2-d]pyrimidin-4-yl)amino)-2-phenylethanol] the same measures were more than 50 µM, 34 µM and more than 50 µM.
In the case of `CCCC[C@H](CO)Nc1nc(N)nc2c(C)ccnc12` [Example 57, (R)-2-((2-amino-8-methylpyrido[3,2-d]pyrimidin-4-yl)amino)hexan-1-ol], the AC50 was 9.7 µM in the data set on IL12p40 (Homo sapiens, PBMC, 24 h); more than 50 µM in the data set with IFNα (Homo sapiens, PBMC, 24 h); 11 µM with TNFα (Homo sapiens, PBMC, 24 h).
On to `Nc1nc(NCCCC(F)(F)F)c2ncccc2n1` [Example 29, N^4-(4,4,4-trifluorobutyl)pyrido[3,2-d]pyrimidine-2,4-diamine], for which the AC50 in the data set with IL12p40 (Homo sapiens, PBMC, 24 h) was 15.5 µM; in the data set with IFNα (Homo sapiens, PBMC, 24 h) it was 3.9 µM; with TNFα (Homo sapiens, PBMC, 24 h) it was 18.3 µM.
For `CC(C)(O)CC[C@H](CO)Nc1nc(N)nc2cccnc12` [Example 110], in that order: 32.6 µM, 32.6 µM and 32.6 µM.
For `CCC[C@@H](CO)Nc1nc(N)nc2cc(OC)cnc12` [Example 42B, (S)-2-((2-amino-7-methoxypyrido[3,2-d]pyrimidin-4-yl)amino)pentan-1-ol], in that order: 0.9 µM, 3.6 µM and 1.1 µM.
For `CC(C)CC[C@H](CO)Nc1nc(N)nc2cccnc12` [Example 76, (R)-2-((2-aminopyrido[3,2-d]pyrimidin-4-yl)amino)-5-methylhexan-1-ol] the same measures were 31.8 µM, 36.9 µM and 36.9 µM.
On to `CCC[C@@H](CO)Nc1nc(N)nc2cc(CC)cnc12` [Example 21, (S)-2-((2-amino-7-ethylpyrido[3,2-d]pyrimidin-4-yl)amino)pentan-1-ol], for which the half-maximal activity concentration (AC50) stood at 2.3 µM with IL12p40 (Homo sapiens, PBMC, 24 h); 4.8 µM in the data set with IFNα (Homo sapiens, PBMC, 24 h); 3.1 µM in the data set on TNFα (Homo sapiens, PBMC, 24 h).
For `CCCC[C@H](CO)Nc1nc(N)nc2cc(O)cnc12` [Example 68, (R)-2-amino-4-((1-hydroxyhexan-2-yl)amino)pyrido[3,2-d]pyrimidin-7-ol] the same measures were 14.2 µM, more than 50 µM and 11.1 µM.
For `CCCC[C@H](CO)Nc1nc(N)nc2cc(C)cnc12` [Example 107, (R)-2-((2-amino-7-methylpyrido[3,2-d]pyrimidin-4-yl)amino)hexan-1-ol] the same measures were 1.8 µM, more than 50 µM and 2.8 µM.
For `CCC[C@H](CO)Nc1nc(N)nc2ccc(C)nc12` [Example 38C, (R)-2-((2-amino-6-methylpyrido[3,2-d]pyrimidin-4-yl)amino)pentan-1-ol] the same measures were more than 50 µM, more than 50 µM and more than 50 µM.

(Values after US12377100B2 (GILEAD SCIENCES, INC., priority 2015, dated 2025).)
